The results in this text go back to patent publication US20260325654A1, “METHODS AND COMPOSITIONS FOR TARGETED PROTEIN DEGRADATION” (Ranok Therapeutics (Hangzhou) Co. Ltd., priority 2023, published 2026).

Structures are written as SMILES. Structures can show the parent of a compound that is named as a salt. A value given as a limit tells only on which side of the number the result lay.

Common to all, as to type: cell-based, human
In assay [1] the test system is NCIH727. The experiment in a line: CellTiter-Glo Reagent cancer cell line proliferation assay, NCIH727. To be noted: NCIH727, KRAS(G12V) heterozygous. The text has this: (§1) The following cancer cell lines were employed: • AsPC-1 human pancreatic adenocarcinoma, homozygous KRAS(G12D), (ATCC, #CRL-1682); A-427 human lung carcinoma, heterozygous KRAS(G12D), (ATCC, #HTB-53); AGS human gastric adenocarcinoma, heterozygous KRAS(G12D), (ATCC, #CRL-1739); GP2D human colon adenocarcinoma, heterozygous KRAS(G12D), (Sigma Aldrich, 95090714); SW1990 human pancreatic adenocarcinoma, homozygous KRAS(G12D), (ATCC, #CRL2172); LU65A human lung giant cell carcinoma, heterozygous KRAS(G12C), (JCRB Cell Bank, #JCRB0054); NCIH727 human lung carcinoid, heterozygous KRAS(G12V), (ATCC, #CRL-5815); MKN1 human gastric adenosquamous carcinoma KRAS (wt), (JCRB Cell Bank, #JCRB0252). Cell lines were cultured according to ATCC, JCRB and Sigma Aldrich recommendations.
(§2) Cells were plated in 96-well tissue culture plates at 4,000 cells/well and incubated at 37° C./5% CO2 for 24 hr in 100 μl of media. 3-fold serial dilutions of each test compound were prepared ranging from 20 μM to 1.02 nM. Cells were then treated with test compounds at various concentrations with a final concentration of 0.5% DMSO/well, and then incubated at 37° C./5% CO2 for 24 hr. 100 μl of CellTiter-Glo® Reagent (Promega Corporation, Madison, WI) was added to each well and processed according manufacturer's protocol. Results were analyzed and IC50-values were calculated in GraphPad 7 software.

Assay [2] has as its system LU65A. Put plainly: CellTiter-Glo Reagent cancer cell line proliferation assay, LU65A. Conditions: KRAS(G12C) heterozygous.
Source text: as §1, §2

Assay [3] has as its system AGS. Put plainly: CellTiter-Glo Reagent cancer cell line proliferation assay, AGS. Conditions: KRAS(G12D) heterozygous.
Source text: as §1, §2

For the compound `C#Cc1c(F)ccc2cc(O)cc(-c3ncc4c(N5CC6CCC(C5)N6C(=O)CC(C)(C)C#N)nc(OCC5(CN6CCN(CC7CCN(c8ccc9c(c8)CN(C8CCC(=O)NC8=O)C9=O)CC7)CC6)CC5)nc4c3F)c12` (stereo not shown) [Compound 131], the IC50 in assay [1] (Homo sapiens, NCI-H727, 24 h) is under 100 nM; in assay [2] (Homo sapiens, 24 h), under 100 nM; in assay [3] (Homo sapiens, 24 h), under 100 nM.
As to `C#Cc1c(F)ccc2cc(O)cc(-c3nc(OC)c4c(N5CC6CCC(C5)N6C(=O)CC(C)C#N)nc(OCC5(CN6CCC(CN7CCC(c8ccc9c(c8)CN(C8CCC(=O)NC8=O)C9=O)C(F)(F)C7)CC6)CC5)nc4c3F)c12` (stereo not shown) [Compound 161], the IC50 in assay [1] (Homo sapiens, NCI-H727, 24 h) was under 100 nM; in assay [2] (Homo sapiens, 24 h) it was under 100 nM; in assay [3] (Homo sapiens, 24 h), under 100 nM.
For `C#Cc1c(F)ccc2cc(O)cc(-c3ncc4c(N5CC6CCC(C5)N6C(=O)CC(C)C#N)nc(OCC5(CN6CCN(CC7CCN(c8ccc(NC9CCC(=O)NC9=O)cc8F)CC7)CC6)CC5)nc4c3F)c12` (stereo not shown) [Compound 137], the IC50 is under 100 nM in assay [1] (Homo sapiens, NCI-H727, 24 h); under 100 nM in assay [2] (Homo sapiens, 24 h); under 100 nM in assay [3] (Homo sapiens, 24 h).
In the case of `C#Cc1c(F)ccc2cc(O)cc(-c3ncc4c(N5CC6CCC(C5)N6C(=O)CC(C)C#N)nc(OCC5(CN6CC7CC7C6)CC5)nc4c3OCc3ccc(-c4cn([C@H](C(=O)N5C[C@H](O)C[C@H]5C(=O)N[C@@H](CO)c5ccc(-c6ccnn6CC)cc5)C(C)C)nn4)cc3)c12` (stereo partly shown) [Compound 140], the IC50 in assay [1] (24 hr), in assay [2] (24 hr) and in assay [3] (24 hr) was under 100 nM throughout.
Regarding `C#Cc1c(F)ccc2cc(O)cc(-c3nc(OC)c4c(N5CCCO[C@@H]6C[C@@H]65)nc(OCC5(CN6CCN(CC7CCN(c8ccc9c(c8)CN([C@H]8CCC(=O)NC8=O)C9=O)CC7)CC6)CC5)nc4c3F)c12` [Compound 165], the IC50 in assay [1] (Homo sapiens, NCI-H727, 24 h) was under 100 nM; in assay [2] (Homo sapiens, 24 h), under 100 nM; in assay [3] (Homo sapiens, 24 h) it was under 100 nM.
Consider `C#Cc1c(F)ccc2cc(O)cc(-c3nc(OC)c4c(N5CCCO[C@H]6C[C@H]65)nc(OCC5(CN6CCN(CC7CCN(c8ccc9c(c8)CN(C8CCC(=O)NC8=O)C9=O)CC7)CC6)CC5)nc4c3F)c12` (stereo partly shown) [Compound 164], for which the IC50 in assay [1] (Homo sapiens, NCI-H727, 24 h) was under 100 nM; in assay [2] (Homo sapiens, 24 h) it was under 100 nM; in assay [3] (Homo sapiens, 24 h), under 100 nM.
As for `C#Cc1c(F)ccc2cc(O)cc(-c3nc(OC)c4c(N5CCCOC6CC65)nc(OCC5(CN6CCN(CC7CCN(c8ccc9c(c8)CN(C8CCC(=O)NC8=O)C9=O)CC7)CC6)CC5)nc4c3F)c12` (stereo not shown) [Compound 157], the IC50 in assay [1] (Homo sapiens, NCI-H727, 24 h) was under 100 nM; in assay [2] (Homo sapiens, 24 h) it was under 100 nM; in assay [3] (Homo sapiens, 24 h) it was under 100 nM.
Consider `C#Cc1c(F)ccc2cc(O)cc(-c3nc(OC)c4c(N5CC6CCC(C5)N6C(=O)CC(C)C#N)nc(OCC5(CN6CCN(CC7CCN(c8ccc9c(c8)CN(C8CCC(=O)NC8=O)C9=O)CC7)CC6)CC5)nc4c3F)c12` (stereo not shown) [Compound 135], for which the IC50 was under 100 nM in assay [1] (Homo sapiens, NCI-H727, 24 h); under 100 nM in assay [2] (Homo sapiens, 24 h); under 100 nM in assay [3] (Homo sapiens, 24 h).
Regarding `C#Cc1c(F)ccc2cc(O)cc(-c3ncc4c(N5CCCOCC5)nc(OCC5(CN6CCN(CC7CCN(c8ccc9c(c8)CN(C8CCC(=O)NC8=O)C9=O)CC7)CC6)CC5)nc4c3F)c12` (stereo not shown) [Compound 134], the 50% inhibitory concentration (IC50) was under 100 nM in assay [1] (Homo sapiens, NCI-H727, 24 h); under 100 nM in assay [2] (Homo sapiens, 24 h); under 100 nM in assay [3] (Homo sapiens, 24 h).
For `C#Cc1c(F)ccc2cc(O)cc(-c3nc(OC)c4c(N5CC6CCC(C5)N6C(=O)C[C@@H](C)C#N)nc(OCC5(CN6CCN(CN7CCC(N8Cc9cc%10c(cc9C8)C(=O)N(C8CCC(=O)NC8=O)C%10)CC7)CC6)CC5)nc4c3F)c12` (stereo partly shown) [Compound 162], the IC50 in assay [1] (Homo sapiens, NCI-H727, 24 h) is under 100 nM; in assay [2] (Homo sapiens, 24 h), under 100 nM; in assay [3] (Homo sapiens, 24 h), under 100 nM.
In assay [3] (Homo sapiens, 24 h), `C#Cc1cccc2cccc(-c3ncc4c(N5CC6CCC(C5)N6)nc(OCCN5CCN(Cc6ccc7c(c6)C(=O)N(C6CCC(=O)NC6=O)C7=O)CC5)nc4c3F)c12` (stereo not shown) [Compound 1, 5-((4-(2-((4-(3,8-diazabicyclo[3.2.1]octan-3-yl)-7-(8-ethynylnaphthalen-1-yl)-8-fluoropyrido[4,3-d]pyrimidin-2-yl)oxy)ethyl)piperazin-1-yl)methyl)-2-(2,6-dioxopiperidin-3-yl) isoindoline-1,3-dione hydrochloride] had an IC50 of over 1000 nM.
